According to US11571405B2, “Compositions for improving sexual function” (INXO A/S, priority 2018, dated 2023):

Assays:
[1] = Inventors' findings on amounts of L-arginine and L-citrulline in the unit dosage; assay type: in vivo
From the text: Furthermore, higher amounts of L-arginine worsened the organoleptic properties of the unit dosage.
In an embodiment of the invention, the unit dosage comprises L-citrulline or a physiologically acceptable salt or hydrate thereof in the range from 0.5-3.0 g, such as 0.5-2.9 g, preferably 0.5-2.8 g, more preferably 0.5-2.7 g, such as 0.7-2.0 g, preferably 0.9-2.0 g, more preferably 1.1-2.0 g, even more preferably 1.3-2.0 g, most preferably 1.5-2.0 g.

[2] = oral; cited from earlier work

SMILES | amount above which efficacy of a unit dosage was not improved further (plateau of efficacy) [1] | amount above which side effects occurred in some instances (e.g. stomachache) [1] | most efficacious amount in the unit dosage [1] [g] | level above which some adverse effects, most commonly diarrhea, have been seen [2]
NC(=O)NCCC[C@H](N)C(=O)O [L-citrulline] | above 2.0 g | – | – | –
N=C(N)NCCC[C@H](N)C(=O)O [L-arginine] | – | above 10 g | 6.0 | above 20 g per day
